Assay results reported in publication PMC8873251, “An amiloride derivative is active against the F1Fo-ATP synthase and cytochrome bd oxidase of Mycobacterium tuberculosis” (Communications Biology, 2022).

What was measured:
[1] = biological target: T1, F1Fo-ATP synthase c-subunit (c-ring) (Mycolicibacterium phlei, UniProt A0A5N5V239); test: MALDI-MS time course of covalent c-subunit labelling; assay type: binding
T1 construct: gene atpE

[2] = biological target: T2, cytochrome bd oxidase (Mycobacterium tuberculosis, UniProt L7N662+O06139); test: malate-driven oxygen consumption in IMVs pre-inhibited with TB47, titration; empty-vector control; assay type: biochemical
T2 construct: gene cydA
T2 sequence (O06139 entry or part of it): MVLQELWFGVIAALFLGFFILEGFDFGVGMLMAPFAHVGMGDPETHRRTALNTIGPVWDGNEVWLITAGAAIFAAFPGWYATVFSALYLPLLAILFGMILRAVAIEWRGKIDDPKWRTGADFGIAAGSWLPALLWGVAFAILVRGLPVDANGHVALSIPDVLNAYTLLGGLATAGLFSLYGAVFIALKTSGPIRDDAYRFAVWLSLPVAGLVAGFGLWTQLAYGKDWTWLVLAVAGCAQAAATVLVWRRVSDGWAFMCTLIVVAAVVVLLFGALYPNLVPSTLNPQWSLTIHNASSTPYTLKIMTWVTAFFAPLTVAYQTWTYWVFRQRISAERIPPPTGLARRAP
T2 sequence (L7N662 entry or part of it): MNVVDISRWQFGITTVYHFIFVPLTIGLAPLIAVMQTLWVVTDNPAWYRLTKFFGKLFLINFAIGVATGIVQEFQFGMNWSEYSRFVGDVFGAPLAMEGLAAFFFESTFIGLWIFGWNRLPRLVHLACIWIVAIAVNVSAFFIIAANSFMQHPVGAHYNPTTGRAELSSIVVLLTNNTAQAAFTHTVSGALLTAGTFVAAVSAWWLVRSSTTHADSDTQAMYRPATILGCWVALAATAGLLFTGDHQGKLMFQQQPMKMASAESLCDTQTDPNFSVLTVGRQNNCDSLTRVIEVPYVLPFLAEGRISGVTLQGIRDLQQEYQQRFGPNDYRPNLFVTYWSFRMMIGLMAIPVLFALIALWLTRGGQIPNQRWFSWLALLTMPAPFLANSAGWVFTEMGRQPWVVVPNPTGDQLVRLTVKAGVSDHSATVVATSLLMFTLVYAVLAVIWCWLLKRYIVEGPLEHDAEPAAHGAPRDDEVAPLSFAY

[3] = biological target: T1, F1Fo-ATP synthase c-subunit (c-ring); test: MALDI-MS competition with DCCD labelling of purified c-ring; assay type: binding

T1 sequence (A0A5N5V239 1-86): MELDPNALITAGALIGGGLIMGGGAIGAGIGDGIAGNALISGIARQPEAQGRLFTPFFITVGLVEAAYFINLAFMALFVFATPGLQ

Q: For C(=NC1CCCCC1)=NC1CCCCC1 [DCCD, N,N'-dicyclohexylcarbodiimide], which “MALDI-MS time course of covalent c-subunit labelling” value [1] is on record?
A: Its value is “Time course of DCCD labelling in purified M. phlei c-rings in the presence of the indicated amounts of HMA”.

Q: With N=C(N)NC(=O)c1nc(-c2cc3ccccc3o2)c(N)nc1N [HM2-16F] as the compound, how does the IC50 [2] read?
A: The IC50 was 21.2 µM.

Q: For N=C(N)NC(=O)c1nc(Cl)c(N2CCCCCC2)nc1N [HMA, 5-(N,N-hexamethylene)amiloride], which “MALDI-MS competition with DCCD labelling of purified c-ring” value [3] is on record?
A: Its value is “HMA was able to outcompete the canonical c-ring covalent inhibitor DCCD for inhibition of the M. phlei F1Fo-ATP synthase c-subunit”.
